Several values for one entry are separate records, joined by “and”; a condition that tells them apart may be missing. Equal entries are not always repeated.
Tested on: patients with elevated triglyceride levels on statin therapy with established cardiovascular disease or at high risk
Assay: REDUCE-IT trial: time to first occurrence of adjudicated cardiovascular endpoint events, AMR101 4 g daily vs placebo
Assay type: in vivo, human
Source text: The following study, also referred to as the REDUCE-IT clinical trial, was a large cardiovascular (CV) outcome trial designed to assess CV risk reduction benefit of AMR101 treatment (commercially known as VASCEPA®) versus placebo on the 5-point primary composite endpoint: CV death, non-fatal stroke, non-fatal myocardial infarction (MI), coronary revascularizations, or unstable angina requiring hospitalization.
A multi-center, prospective, randomized, double-blind, placebo-controlled, parallel-group study was performed to evaluate the effect of AMR101 (4 g per day) on cardiovascular health and mortality in hypertriglyceridemic patients with cardiovascular disease or at high risk for cardiovascular disease. The intended expanded indication of the study was treatment with AMR101 as an add-on to statin therapy to reduce the risk of cardiovascular events in patients with clinical cardiovascular disease or with multiple risk factors for cardiovascular disease.
The primary objective of this study was, in patients at LDL-C goal while on statin therapy, with established cardiovascular disease (CVD) or at high risk for CVD, and hypertriglyceridemia (e.g., fasting triglycerides(TG)≥200 mg/dL and <500 mg/dL), to evaluate the effect of AMR101 4 g daily on time from randomization to first occurrence of any component of the composite of the following major CV events: CV death; nonfatal MI; (including silent MI; electrocardiograms (ECGs) were performed annually for the detection of silent MIs); nonfatal stroke; coronary revascularization; and unstable angina determined to be caused by myocardial ischemia by invasive/non-invasive testing and requiring emergent hospitalization.
The key secondary objective of this study was to evaluate the effect of AMR101 4 g daily on the time from randomization to the first occurrence of the composite of following major CV events: CV death, nonfatal MI (including silent MI), and nonfatal stroke.
Other secondary objectives for this study were to evaluate the effect of therapy on time from randomization to the first occurrence of the following individual or composite endpoints: composite of CV death or nonfatal MI (including silent MI); fatal or nonfatal MI (including silent MI); non-elective coronary revascularization represented as the composite of emergent or urgent classifications; CV death; unstable angina determined to be caused by myocardial ischemia by invasive/non-invasive testing and requiring emergent hospitalization; fatal or nonfatal stroke; composite of total mortality, nonfatal MI (including silent MI), or nonfatal stroke; and total mortality.
Primary Efficacy Endpoint: The primary efficacy endpoint was time from randomization to the first occurrence of the composite of the following clinical events: CV death; nonfatal MI (including silent MI; ECGs were performed annually for the detection of silent MIs); nonfatal stroke; coronary revascularization; and unstable angina determined to be caused by myocardial ischemia by invasive/non-invasive testing and requiring emergent hospitalization. The first occurrence of any of these major adverse vascular events during the follow-up period of the study were included in the incidence.
Secondary Efficacy Endpoints: The key secondary efficacy endpoint was the time from randomization to the first occurrence of the composite of CV death, nonfatal MI (including silent MI), or nonfatal stroke. […]

[1] = adjudicated tertiary endpoint, listed as AMR101
[2] = adjudicated tertiary endpoint, listed as Icosapent Ethyl
[3] = vs placebo, median follow up 4.9 years
[4] = vs placebo, time to first event
[5] = vs placebo, time to first occurrence

SMILES: CC/C=C\C/C=C\C/C=C\C/C=C\C/C=C\CCCC(=O)OCC [icosapent ethyl, eicosapentaenoic acid ethyl ester]
- Amputation for PVD, patients with event (adjudicated tertiary endpoint): (0.5%)
- Cardiac Arrest, patients with event (adjudicated tertiary endpoint): (0.5%)
- Cardiac Arrhythmias Requiring Hospitalization of ≥24 Hours, patients with event (adjudicated tertiary endpoint): (4.6%)
- Carotid Revascularization, patients with event (adjudicated tertiary endpoint): (0.8%)
- Coronary Revascularization, patients with event (adjudicated tertiary endpoint): (9.2%)
- Elective Revascularization, patients with event (adjudicated tertiary endpoint): (4.7%)
- Emergent Revascularization, patients with event (adjudicated tertiary endpoint): (1.0%)
- Ischemic Stroke, patients with event (adjudicated tertiary endpoint): (2.0%)
- New Heart Failure Requiring Hospitalization, patients with event (adjudicated tertiary endpoint): (3.4%)
- Primary Endpoint in Patients with Diabetes at Baseline, patients with event (adjudicated tertiary endpoint): (18.1%)
- Salvage Revascularization, patients with event (adjudicated tertiary endpoint): (0.0%)
- Sudden Cardiac Death, patients with event (adjudicated tertiary endpoint): 1.5%
- Transient Ischemic Attack, patients with event (adjudicated tertiary endpoint): (1.6%)
- Urgent Revascularization, patients with event (adjudicated tertiary endpoint): (4.4%)
- Hemorrhagic Stroke, patients with event [1]: 0.3%
- New Heart Failure, patients with event [1]: 4.1%
- Hemorrhagic Stroke, patients with event [2]: (0.3%)
- New Heart Failure, patients with event [2]: (4.1%)
- Sudden Cardiac Death, patients with event [2]: (1.5%)
- key secondary composite endpoint, patients with event (first occurrence of CV death, nonfatal MI or nonfatal stroke, median follow up 4.9 years): 11.2%
- primary composite endpoint, patients with event (first occurrence of CV death, nonfatal MI, nonfatal stroke, coronary revascularization or unstable angina, median follow up 4.9 years): 17.2%
- cardiovascular death, patients with event (in vivo): 4.3%
- total mortality, patients with event (in vivo): 6.7%
- key secondary composite endpoint, number needed to treat (median follow up 4.9 years): 28
- primary composite endpoint, number needed to treat (median follow up 4.9 years): 21
- New Onset of Diabetes, patients with event (patients with diabetes at baseline excluded): (3.8%)
- Amputation for PVD, HR (vs placebo): 1.04
- Cardiac Arrest, HR (vs placebo): 0.52
- Cardiac Arrhythmias Requiring Hospitalization of ≥24 Hours, HR (vs placebo): 1.21
- Carotid Revascularization, HR (vs placebo): 1.18
- Coronary Revascularization, HR (vs placebo): 0.66
- Elective Revascularization, HR (vs placebo): 0.68
- Emergent Revascularization, HR (vs placebo): 0.62
- Hemorrhagic Stroke, HR (vs placebo): 1.28
- Ischemic Stroke, HR (vs placebo): 0.64
- New Heart Failure Requiring Hospitalization, HR (vs placebo): 0.97
- New Heart Failure, HR (vs placebo): 0.95
- Primary Endpoint in Patients with Diabetes at Baseline, HR (vs placebo): 0.77
- Salvage Revascularization, HR (vs placebo): 0.00
- Sudden Cardiac Death, HR (vs placebo): 0.69
- Transient Ischemic Attack, HR (vs placebo): 1.32
- Urgent Revascularization, HR (vs placebo): 0.66
- cardiac arrest, reduction (vs placebo): 48%
- cardiovascular death, HR (vs placebo): 0.80
- cardiovascular death, relative risk reduction (vs placebo): 20%
- composite of cardiovascular death or nonfatal myocardial infarction, RRR (vs placebo): 25%
- composite of total mortality, nonfatal myocardial infarction, or nonfatal stroke, RRR (vs placebo): 23%
- fatal or nonfatal myocardial infarction, RRR (vs placebo): 31%
- fatal or nonfatal stroke, RRR (vs placebo): 28%
- hospitalization for unstable angina, RRR (vs placebo): 32%
- myocardial infarction, HR (vs placebo): 0.69
- primary endpoint risk reduction, post hoc analysis excluding patients with diarrhea (vs placebo): 25%
- stroke, HR (vs placebo): 0.72
- sudden cardiac death, reduction (vs placebo): 31%
- total mortality, HR (vs placebo): 0.87
- total mortality, relative risk reduction (vs placebo): 13%
- urgent or emergent revascularization, RRR (vs placebo): 35%
- key secondary composite endpoint, absolute risk reduction [3]: 3.6%
- primary composite endpoint, absolute risk reduction [3]: 4.8%
- New Onset of Diabetes, HR (vs placebo, patients with diabetes at baseline excluded): 1.04
- key secondary composite endpoint, relative risk reduction [4]: 26% and 26.5%
- primary composite endpoint, relative risk reduction [4]: 25% and 24.8%
- key secondary composite endpoint, HR [5]: 0.74
- primary composite endpoint, HR [5]: 0.75

Source: patent US20200261391A1, “METHODS OF REDUCING THE RISK OF A CARDIOVASCULAR EVENT IN A STATIN-TREATED SUBJECT BY INCREASING SERUM AND PLASMA EPA AND DPA LEVELS” (Amarin Pharmaceuticals Ireland Limited, priority 2019, published 2020)
